Experimental data taken from patent US7417056B2, “5-substituted quinoline and isoquinoline derivatives, a process for their production and their use as anti-inflammatory agents” (Schering AG, priority 2004, dated 2008).

Columns and labels:
[1] = tested on: tyrosine aminotransferase (TAT); test: Induction of tyrosine aminotransferase (TAT) in rat hepatoma cells; type: cell-based; details: for efficiency, induction of TAT: 24 hours, efficiency of dexamethasone = 100%; for EC50: treated for 24 hours
Source text: One of the most frequent undesirable actions of a glucocorticoid therapy is the so-called “steroid diabetes” [cf. Hatz, H. J., Glucocorticoide: Immunologische Grundlagen, Pharmakologie und Therapierichtlinien [Glucocorticoids: Immunological Principles, Pharmacology and Therapy Guidelines], Wissenschaftliche Verlagsgesellschaft mbH, Stuttgart, 1998]. The reason for this is the stimulation of gluconeogenesis in the liver by induction of the enzymes that are responsible for this and by free amino acids that are produced from the degradation of proteins (catabolic action of glucocorticoids). A key enzyme of the catabolic metabolism in the liver is the tyrosine aminotransferase (TAT). The activity of this enzyme can be determined photometrically from cell cultures of treated rat hepatoma cells. The cells are treated for 24 hours with the test substances, and then the TAT activity is measured.

[2] = tested on: secretion of the cytokine IL-8, induced by lipopolysaccharide (LPS), in the human monocyte cell line THP-1; test: Inhibition of LPS-induced IL-8 secretion in THP-1 cells (ELISA); type: cell-based; details: efficiency of dexamethasone = 100%
Description: The concentration of the cytokines was determined in the supernatant by means of commercially available ELISA kits.

[3] = Skin atrophy in rats (skin fold thickness measurement); type: in vivo; details: local, daily for 18 days
Description: Another undesirable action that occurs especially after local therapy is the induction of a skin atrophy, which leads to the skin's loss of thickness, elasticity, and ultimately the mechanical resistance of the skin. The potential of a substance to induce skin atrophy can be determined in rats. The animals are treated for 18 days daily and locally in equieffective dosages with the test substances. By means of a skin fold thickness measurement, the reduction of the skin thickness over the treatment time can be tracked.

SMILES | efficiency, induction of TAT [1] [%] | efficiency, inhibition of IL-8 secretion [2] [%] | reduction of the skin thickness ([3]; concentration 0.1% (maximum anti-inflammatory action is achieved)) [%] | EC50 [1] [nM] | reduction of the skin thickness ([3]; concentration 0.01% (maximum anti-inflammatory action is achieved)) [%]
Cc1ccc2c(NCC(O)(CC(C)(C)c3cc(F)cc4c3OCC4)C(F)(F)F)cccc2n1 (centres unmarked) [Example 1, 5-[4-(5-Fluoro-2,3-dihydrobenzofuran-7-yl)-2-hydroxy-4-methyl-2-trifluoromethyl-pentylamino]-2-methylquinoline] | 93 | 74 | 41 |  | 
Cc1ccc2c(NCC(O)(CC(C)(C)c3cc(F)cc4c3OCC4)C(F)(F)F)ccc(F)c2n1 (centres unmarked) [Example 10, 8-Fluoro-5-[4-(5-Fluoro-2,3-dihydrobenzofuran-7-yl)-2-hydroxy-4-methyl-2-trifluoromethyl-pentylamino]-2-methylquinoline] | 92 | 86 |  | 10 | 
Cn1ccc2c(NCC(O)(CC(C)(C)c3cc(F)cc4c3OCC4)C(F)(F)F)cccc2c1=O (centres unmarked) [Example 11, 5-[4-(5-Fluoro-2,3-dihydrobenzofuran-7-yl)-2-hydroxy-4-methyl-2-trifluoromethyl-pentylamino]-2-methylisoquinol-1(2H)-one] | 86 | 61 |  | 4 | 
CCC(=O)O[C@]1(C(=O)CCl)[C@@H](C)C[C@H]2[C@@H]3CCC4=CC(=O)C=C[C@]4(C)[C@@]3(F)[C@@H](O)C[C@@]21C [clobetasol propionate, reference compound] |  |  |  |  | 65
C[C@]12C=CC(=O)C=C1CC[C@@H]1[C@@H]2[C@@H](O)C[C@@]2(C)[C@H]1CC[C@]2(O)C(=O)CO [prednisolone, reference compound] |  | 96 |  |  | 
